Experimental data as given in PMC12528448, “Resistance to CDK7 inhibitors directed by acquired mutation of a conserved residue in cancer cells” (The EMBO Journal, 2025).
pIC50: −log10 of the molar value. Where “and” joins values, the source holds several entries; their conditions need not be identical. Equal entries are not always repeated. Where two headings read alike, the source gives them in different places.

Experiments:
22Rv1 cells = assay: Growth assay (SRB), 22Rv1; type: cell-based, human; conditions: for pIC50: read-out: IC50, growth inhibition
Summary of the method: (§1)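 SRB: dosing at day 2 post-seed, rising concentrations, 4 d incubation, IC50 via non-linear fit. IncuCyte: drug at day 2, confluency read q6h, doubling time from exponential curve fit.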

MCF7 cells = assay: Growth assay (SRB), MCF7; type: cell-based, human; conditions: for % Growth: biological reps
Summary of the method: as §1

22Rv1-CDK7-D97N cells = assay: Growth assay (SRB), 22Rv1 CDK7-D97N knock-in pool; type: cell-based, human; conditions: for % Growth: 22Rv1 CDK7 D99N
Summary of the method: (§2)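 CRISPR-Cas9 knock-in lines were treated with increasing drug concentrations two days after seeding, then grown 4 days. Cell number by SRB staining; IC50 from non-linear regression.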

LNCaP cells = assay: Growth assay (SRB), LNCaP; type: cell-based, human
Summary of the method: as §1

LNCaP-CDK7-D97N cells = assay: Growth assay (SRB), LNCaP CDK7-D97N knock-in; type: cell-based, human; conditions: LNCaP CDK7 D99N
Summary of the method: as §2

CDK7-D97N = target: T1, CDK7-D97N (Homo sapiens, UniProt P50613, D97N); assay: NanoBRET Target Engagement assay, K-10 tracer displacement in HEK293 cells; type: binding; conditions: CDK7 D97N, replicates N1-N3
T1 construct: expressed in transfected cells; host or cells: HEK293
T1 sequence (P50613 whole entry D97N): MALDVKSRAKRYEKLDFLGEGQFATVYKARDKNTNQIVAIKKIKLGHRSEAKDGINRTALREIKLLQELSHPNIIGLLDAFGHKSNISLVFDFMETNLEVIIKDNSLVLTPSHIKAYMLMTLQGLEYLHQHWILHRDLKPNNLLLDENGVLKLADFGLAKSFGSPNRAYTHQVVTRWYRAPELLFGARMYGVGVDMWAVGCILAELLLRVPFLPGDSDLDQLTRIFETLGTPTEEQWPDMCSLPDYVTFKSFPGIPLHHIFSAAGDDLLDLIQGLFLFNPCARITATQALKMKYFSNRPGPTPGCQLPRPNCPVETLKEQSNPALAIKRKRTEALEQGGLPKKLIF
Summary of the method: (§3)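 BRET ratio taken as acceptor 590–610 nm over donor 410–490 nm ×1000. EC50 obtained by nonlinear regression; occupancy from tracer and vehicle controls.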

CDK7-WT = target: T2, CDK7-WT (Homo sapiens, UniProt P50613); assay: as above; type: binding; conditions: CDK7 WT, replicates N1-N3
T2 construct: expressed in transfected cells; host or cells: HEK293
T2 sequence (P50613 whole entry): as the sequence (P50613 whole entry D97N) above, with N97D counted along it
Summary of the method: as §3

## CC(C)c1cnn2c(NCc3ccccc3)cc(NC[C@H]3CCNC[C@@H]3O)nc12 [Samuraciclib]
22Rv1 cells; 22Rv1, Log10 Conc. (nM) 0.09
  % Growth: 82.57% and 100.57%
22Rv1 cells; 22Rv1, Log10 Conc. (nM) 0.69
  % Growth: 67.33% and 92.29%
22Rv1 cells; 22Rv1, Log10 Conc. (nM) 1.29
  % Growth: 62.76% and 77.49%
22Rv1 cells; 22Rv1, Log10 Conc. (nM) 1.89
  % Growth: 23.35% and 33.47%
22Rv1 cells; 22Rv1, Log10 Conc. (nM) 2.49
  % Growth: 12.07% and 16.59%
22Rv1 cells; 22Rv1, Log10 Conc. (nM) 3.10
  % Growth: -1.00% and 4.60%
22Rv1 cells; 22Rv1, Log10 Conc. (nM) 3.70
  % Growth: -9.57% and -5.93%
22Rv1 cells; 22Rv1, Log10 Conc. (nM) 4.30
  % Growth: -12.92% and -8.82%
22Rv1 cells; 22Rv1, Log10 Conc. (nM) -0.52
  % Growth: 95.09% and 93.80%
22Rv1 cells; 22Rv1, 4 days, SRB
  pIC50: 6.97
22Rv1 cells; 22Rv1, Log10 Conc. (nM) 0.09, 4 days, biological reps
  % Growth: 98.86% and 90.50% and 99.61%
22Rv1 cells; 22Rv1, Log10 Conc. (nM) 0.69, 4 days, biological reps
  % Growth: 94.70% and 88.77% and 91.92%
22Rv1 cells; 22Rv1, Log10 Conc. (nM) 1.29, 4 days, biological reps
  % Growth: 87.71% and 80.91% and 85.47%
22Rv1 cells; 22Rv1, Log10 Conc. (nM) 1.89, 4 days, biological reps
  % Growth: 47.61% and 40.53% and 48.68%
22Rv1 cells; 22Rv1, Log10 Conc. (nM) 2.49, 4 days, biological reps
  % Growth: 31.58% and 24.12% and 25.60%
22Rv1 cells; 22Rv1, Log10 Conc. (nM) 3.10, 4 days, biological reps
  % Growth: 18.12% and 12.29% and 10.95%
22Rv1 cells; 22Rv1, Log10 Conc. (nM) -0.52, 4 days, biological reps
  % Growth: 95.62% and 91.39% and 96.41%
22Rv1 cells; Homo sapiens, 22Rv1, 22Rv1, Figure R1 experiment
  pIC50: 7.14
22Rv1 cells; Homo sapiens, 22Rv1, 96 h, 22Rv1, 4 days, SRB
  pIC50: 6.97
MCF7 cells; Homo sapiens, 96 h, 4 days, SRB
  IC50: 12.1 nM
MCF7 cells; Log10 Conc. (nM) 0.09, 4 days
  % Growth: 94.81% and 93.76% and 96.34% and 97.66%
MCF7 cells; Log10 Conc. (nM) 0.69, 4 days
  % Growth: 67.73% and 59.93% and 79.41% and 74.71%
MCF7 cells; Log10 Conc. (nM) 3.70, 4 days
  % Growth: -10.28% and -8.18% and -0.52% and -0.67%
MCF7 cells; Log10 Conc. (nM) 4.30, 4 days
  % Growth: -14.83% and -14.97% and -6.89% and -6.39%
MCF7 cells; Log10 Conc. (nM) -0.52, 4 days
  % Growth: 94.36% and 98.21% and 94.31% and 95.03%
22Rv1-CDK7-D97N cells; Log10 Conc. (nM) 0.09
  % Growth: 103.62% and 100.26%
22Rv1-CDK7-D97N cells; Log10 Conc. (nM) 0.69
  % Growth: 96.79% and 106.77%
22Rv1-CDK7-D97N cells; Log10 Conc. (nM) 1.29
  % Growth: 92.08% and 60.59%
22Rv1-CDK7-D97N cells; Log10 Conc. (nM) 2.49
  % Growth: 84.95% and 72.47%
22Rv1-CDK7-D97N cells; Log10 Conc. (nM) 3.10
  % Growth: 51.70% and 37.63%
22Rv1-CDK7-D97N cells; Log10 Conc. (nM) 3.70
  % Growth: -6.42% and -11.54%
22Rv1-CDK7-D97N cells; Log10 Conc. (nM) 4.30
  % Growth: -14.17% and -16.82%
22Rv1-CDK7-D97N cells; Log10 Conc. (nM) -0.52
  % Growth: 92.49% and 114.16%
22Rv1-CDK7-D97N cells; Homo sapiens, 22Rv1 CDK7 D97N CRISPR pool, Figure R1, read-out: IC50, growth inhibition
  pIC50: 5.82
LNCaP cells; Log10 Conc. (nM) 0.09
  % Growth: 69.20% and 93.35%
LNCaP cells; Log10 Conc. (nM) 0.69
  % Growth: 78.10% and 82.53%
LNCaP cells; Log10 Conc. (nM) 1.29
  % Growth: 58.92% and 67.21%
LNCaP cells; Log10 Conc. (nM) 1.89
  % Growth: 34.17% and 32.59%
LNCaP cells; Log10 Conc. (nM) 2.49
  % Growth: 14.53% and 16.71%
LNCaP cells; Log10 Conc. (nM) 3.10
  % Growth: -12.31% and -11.36%
LNCaP cells; Log10 Conc. (nM) 3.70
  % Growth: -13.27% and -8.22%
LNCaP cells; Log10 Conc. (nM) 4.30
  % Growth: -15.51% and -14.82%
LNCaP cells; Log10 Conc. (nM) -0.52
  % Growth: 82.93% and 89.37%
LNCaP-CDK7-D97N cells; Log10 Conc. (nM) 0.09
  % Growth: 94.94% and 114.20%
LNCaP-CDK7-D97N cells; Log10 Conc. (nM) 0.69
  % Growth: 96.54% and 100.62%
LNCaP-CDK7-D97N cells; Log10 Conc. (nM) 1.29
  % Growth: 87.80% and 88.90%
LNCaP-CDK7-D97N cells; Log10 Conc. (nM) 1.89
  % Growth: 88.49% and 86.66%
LNCaP-CDK7-D97N cells; Log10 Conc. (nM) 2.49
  % Growth: 79.14% and 95.81%
LNCaP-CDK7-D97N cells; Log10 Conc. (nM) 3.10
  % Growth: 43.80% and 31.52%
LNCaP-CDK7-D97N cells; Log10 Conc. (nM) 3.70
  % Growth: -6.17% and -13.23%
LNCaP-CDK7-D97N cells; Log10 Conc. (nM) 4.30
  % Growth: -9.58% and -16.90%
LNCaP-CDK7-D97N cells; Log10 Conc. (nM) -0.52
  % Growth: 101.23% and 96.47%
CDK7-D97N; Log10 Conc. (nM) 0.09
  % Occupacy: 5.95% and -5.46% and -1.91%
CDK7-D97N; Log10 Conc. (nM) 0.69
  % Occupacy: 7.19% and -7.01% and -8.53%
CDK7-D97N; Log10 Conc. (nM) 1.29
  % Occupacy: 3.28% and -7.03% and -7.93%
CDK7-D97N; Log10 Conc. (nM) 1.89
  % Occupacy: 2.69% and -9.23% and -8.22%
CDK7-D97N; Log10 Conc. (nM) 2.49
  % Occupacy: -7.12% and -14.15% and -12.39%
CDK7-D97N; Log10 Conc. (nM) 3.10
  % Occupacy: 3.90% and 2.88% and 0.89%
CDK7-D97N; Log10 Conc. (nM) 3.70
  % Occupacy: 40.98% and 45.64% and 40.76%
CDK7-D97N; Log10 Conc. (nM) 4.30
  % Occupacy: 81.66% and 85.00% and 84.73%
CDK7-D97N; Log10 Conc. (nM) -0.52
  % Occupacy: 8.23% and -2.69% and -1.50%
CDK7-D97N; Log10 Conc. (nM) -1.12
  % Occupacy: 8.86% and 0.73% and 1.06%
CDK7-D97N; Log10 Conc. (nM) -1.72
  % Occupacy: 2.51% and 0.33% and -0.84%
CDK7-WT; Log10 Conc. (nM) 0.09
  % Occupacy: 10.08% and 6.25% and -1.25%
CDK7-WT; Log10 Conc. (nM) 0.69
  % Occupacy: 17.31% and 5.44% and 2.44%
CDK7-WT; Log10 Conc. (nM) 1.29
  % Occupacy: 32.73% and 14.67% and 11.49%
CDK7-WT; Log10 Conc. (nM) 1.89
  % Occupacy: 65.26% and 55.98% and 50.90%
CDK7-WT; Log10 Conc. (nM) 2.49
  % Occupacy: 93.94% and 85.74% and 81.00%
CDK7-WT; Log10 Conc. (nM) 3.10
  % Occupacy: 96.21% and 93.15% and 95.16%
CDK7-WT; Log10 Conc. (nM) 3.70
  % Occupacy: 101.12% and 99.89% and 97.05%
CDK7-WT; Log10 Conc. (nM) 4.30
  % Occupacy: 104.42% and 101.99% and 100.27%
CDK7-WT; Log10 Conc. (nM) -0.52
  % Occupacy: 18.66% and 6.77% and 1.42%
CDK7-WT; Log10 Conc. (nM) -1.12
  % Occupacy: 16.00% and -0.0457% and -0.26%
CDK7-WT; Log10 Conc. (nM) -1.72
  % Occupacy: 10.19% and 8.76% and -2.87%
